Assay results reported in patent US20250161403A1, “PEPTIDES AND METHODS OF USE THEREOF IN TREATING OCULAR DISORDERS” (Biomarck Pharmaceuticals, Ltd., priority 2022, published 2025).

Tests used:
Format in all cases: in vivo, Sprague-Dawley rats
[1] = system: dry eye in the Alacrimal Rat Model; experiment: Alacrimal rat dry eye model: clinical examination by biomicroscopy, corneal opacity score; conditions: for Corneal scores compared to sham: 100 μM topical 4 times a day, days 3 and 7
Description: (§1) Dry eye was induced in the left eye of Sprague-Dawley rats by removal of the extraorbital lacrimal gland. […] Topical administration of test compounds was initiated 2 weeks after surgery, given 4 times a day and continued for 24 days. Sham rats (n=6) were untreated. Alacrimal rats (n=6 each) were dosed bilaterally with 10 μL of phosphate buffered saline (PBS), or 100 μM of either of two MARCKS inhibitors: BIO-11006 [high molecular weight] or BIO-91201 [lower molecular weight]. The efficacy of these MARCKS inhibitor peptides was assessed via clinical examination using biomicroscopy and phenol red test (PRT) tear volume with the observers masked to the treatments. Examinations were at baseline, 2 weeks after surgery, and on days 1, 3, 7, 14, 21, and 24 after initiating dosing. Clinical scores for corneal opacity, vascularization, and corneal fluorescein (FL) retention were recorded at each examination.
Corneal scores were assessed as in the table below.

[2] = system: dry eye in the Alacrimal Rat Model; experiment: Alacrimal rat dry eye model: corneal fluorescein (FL) retention score; conditions: 100 μM topical 4 times a day
Description: as §1
PRT was higher in MARCKs inhibitor-dosed groups compared to PBS groups on days 14, 21, and 24 after surgery (p<0.02; t test). Fluorescein retention score was measured as shown in the table below, and the scores and statistical analyses are provided in FIG. 2.
Fluorescein retention scores.

[3] = system: dry eye in the Alacrimal Rat Model; experiment: Alacrimal rat dry eye model: phenol red test (PRT) tear volume; conditions: overall conclusion of the study; 100 μM topical
Description: as §1
FIG. 3 provides the results of the phenol red test (PRT), showing tear measurement in mm/20 s averaged for each group.

| Substance | Corneal scores compared to sham [1] | corneal opacity scores ([1]; 100 μM, 10 μL topical 4 times a day for 24 days, relative to PBS and BIO-11006 dosed groups) | effect on indicators of dry eye disease including corneal scores and corneal fluorescein retention ([1]; overall conclusion of the study, 100 μM topical) | FL retention scores versus sham eyes ([2]; through day 14) | corneal fluorescein (FL) retention ([2]; versus PBS or BIO-11006 dosed eyes, p<0.02) | tear production [3] |
| --- | --- | --- | --- | --- | --- | --- |
| Ac-AKGE-OH [BIO-91201] | no difference between sham and BIO-91201 | reduced corneal opacity scores relative to the PBS and BIO-11006 dosed groups | significant positive effect | not significantly different than sham eyes | significantly lower FL retention than PBS or BIO-11006 dosed eyes | improvement in tear production |
| BIO-11006: N-terminal acetylated peptide of SEQ ID NO 106 (GAQFSKTAAK), free C-terminus; MARCKS inhibitor, high molecular weight (Ac-GAQFSKTAAK-OH) | significantly elevated | – | – | – | – | – |
